Consider 4 compounds from ChEMBL document CHEMBL1157055, “Limonoids and tirucallane derivatives from the seeds of a krishna mangrove, Xylocarpus moluccensis” (2010).

The source made the active and inactive calls. No cut-off for these calls is given here.

Assay [1] relates to Brontispa longissima. Nature of the assay: Insecticidal activity against Brontispa longissima Gestro at 100 ug/ml. It counts as functional, organism-based.
For assay [2], the system named is Brontispa longissima. Nature of the assay: Insecticidal activity against Brontispa longissima Gestro at 100 ug/ml after 96 hrs. It counts as functional.
Assay [3] has as its system Brontispa longissima. Briefly: Insecticidal activity against Brontispa longissima Gestro at 100 ug/ml after 72 hrs. It counts as functional.

Consider `CC[C@H](C)C(=O)O[C@H]1[C@@]2(C)C[C@@]3(OC(=O)[C@@H](C)CC)[C@](C)([C@H]4CC[C@]5(C)C(=C4C(=O)[C@@]13O)CC(=O)O[C@H]5c1ccoc1)[C@H]2CC(=O)OC`, for which the result in assay [1] was inactive.
Still for that read-out and setting: the result for `CC[C@H](C)C(=O)O[C@@]12C(=O)C3=C(CC[C@]4(C)C3=CC(=O)O[C@H]4c3ccoc3)[C@]3(C)[C@@H](CC(=O)OC)[C@](C)(C[C@]13O)[C@@H]2OC(=O)C(C)C` reads “inactive”.
As for `CC[C@H](C)C(=O)O[C@@]12C(=O)C3=C4CC(=O)O[C@@H](c5ccoc5)[C@]4(C)CC[C@@H]3[C@]3(C)[C@@H](CC(=O)OC)[C@](C)(C[C@@]31O)[C@@H]2OC(=O)C(C)C`, in assay [1], the outcome was inactive.
`CC[C@H](C)C(=O)O[C@@]12C[C@]3(C)[C@H](OC(=O)C(C)C)[C@]1(O)C(=O)C1=C(CC[C@]4(C)C1=CC(=O)O[C@H]4c1ccoc1)[C@]2(C)[C@H]3CC(=O)OC` [MOLUCCENSINS H]: the Activity is 27.6% in assay [2] and 20.7% in assay [3].
